# Paper PMC10472371, “Discovery of E2730, a novel selective uncompetitive GAT1 inhibitor, as a candidate for anti‐seizure medication” (Epilepsia Open, 2023)
# Entries after “also recorded” stand apart in the source; their conditions may differ.
# Key:
# [1] = system: panel of 86 receptors, transporters, and ion channels; assay: Binding panel assay; conditions: tested at 30 and 300 μM
# Description: In this binding panel assay, E2730 was tested at 30 and 300 μM.
# [2] = target: T1, hGABAAR (containing α1, β3, and γ2 subunits) (Homo sapiens, UniProt P14867+P18507+P28472); assay: GABA-induced current in hGABAAR-expressing HEK-293 cells, whole-cell patch-clamp; type: cell-based; conditions: up to 100 μM
# T1 construct: expressed in transfected cells; host or cells: HEK-293
# T1 sequence (P14867 28-456): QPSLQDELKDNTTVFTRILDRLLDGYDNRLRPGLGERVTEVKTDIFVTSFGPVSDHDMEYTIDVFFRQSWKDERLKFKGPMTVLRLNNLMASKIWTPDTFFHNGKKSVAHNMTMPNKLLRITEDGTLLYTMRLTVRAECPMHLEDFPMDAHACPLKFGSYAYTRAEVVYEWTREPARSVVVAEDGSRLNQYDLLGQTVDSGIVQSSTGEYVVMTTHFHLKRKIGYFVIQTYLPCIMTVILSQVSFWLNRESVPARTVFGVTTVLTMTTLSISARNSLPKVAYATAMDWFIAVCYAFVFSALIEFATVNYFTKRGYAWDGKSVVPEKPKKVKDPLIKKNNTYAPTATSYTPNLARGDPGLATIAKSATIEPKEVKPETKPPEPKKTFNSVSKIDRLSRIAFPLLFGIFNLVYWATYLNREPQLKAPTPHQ
# T1 sequence (P28472 26-473): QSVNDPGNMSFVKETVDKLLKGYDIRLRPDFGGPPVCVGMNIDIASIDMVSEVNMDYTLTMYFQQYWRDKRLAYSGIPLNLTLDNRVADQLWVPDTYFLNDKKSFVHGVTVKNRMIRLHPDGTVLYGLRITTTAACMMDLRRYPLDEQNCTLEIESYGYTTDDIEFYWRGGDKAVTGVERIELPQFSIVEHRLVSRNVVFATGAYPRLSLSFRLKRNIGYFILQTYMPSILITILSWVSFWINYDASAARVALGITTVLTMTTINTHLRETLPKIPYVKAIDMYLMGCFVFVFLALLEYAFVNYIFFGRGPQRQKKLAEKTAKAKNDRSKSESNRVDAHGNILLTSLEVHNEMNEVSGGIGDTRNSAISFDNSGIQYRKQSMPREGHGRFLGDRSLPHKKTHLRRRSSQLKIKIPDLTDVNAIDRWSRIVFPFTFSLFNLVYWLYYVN
# T1 sequence (P18507 40-475): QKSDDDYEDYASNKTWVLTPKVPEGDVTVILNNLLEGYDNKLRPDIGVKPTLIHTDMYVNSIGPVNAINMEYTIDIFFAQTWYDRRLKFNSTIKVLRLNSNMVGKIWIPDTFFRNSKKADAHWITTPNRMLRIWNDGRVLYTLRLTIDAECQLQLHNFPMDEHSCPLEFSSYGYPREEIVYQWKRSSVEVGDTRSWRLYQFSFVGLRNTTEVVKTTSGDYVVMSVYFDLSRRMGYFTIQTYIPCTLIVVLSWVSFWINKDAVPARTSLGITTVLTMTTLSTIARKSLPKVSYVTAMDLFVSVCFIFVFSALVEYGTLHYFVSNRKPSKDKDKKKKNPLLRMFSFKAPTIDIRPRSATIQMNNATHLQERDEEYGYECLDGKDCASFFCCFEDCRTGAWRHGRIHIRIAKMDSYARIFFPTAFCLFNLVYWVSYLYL
# Description: Data represent the mean ± SEM of 3 independent experiments. Control response is GABA (13 μM)-induced current amplitude. […] Cells in voltage clamp were maintained at -80 mV throughout the experiments following the voltage protocol.
# [3] = target: T2, human brain synaptosomal membranes (Homo sapiens, UniProt P30531); assay: Saturation binding of [3H]E2730 in human brain synaptosomal membranes
# T2 construct: from tissue; host or cells: human cerebral cortex; synaptosomal membranes
# T2 sequence (P30531 whole entry): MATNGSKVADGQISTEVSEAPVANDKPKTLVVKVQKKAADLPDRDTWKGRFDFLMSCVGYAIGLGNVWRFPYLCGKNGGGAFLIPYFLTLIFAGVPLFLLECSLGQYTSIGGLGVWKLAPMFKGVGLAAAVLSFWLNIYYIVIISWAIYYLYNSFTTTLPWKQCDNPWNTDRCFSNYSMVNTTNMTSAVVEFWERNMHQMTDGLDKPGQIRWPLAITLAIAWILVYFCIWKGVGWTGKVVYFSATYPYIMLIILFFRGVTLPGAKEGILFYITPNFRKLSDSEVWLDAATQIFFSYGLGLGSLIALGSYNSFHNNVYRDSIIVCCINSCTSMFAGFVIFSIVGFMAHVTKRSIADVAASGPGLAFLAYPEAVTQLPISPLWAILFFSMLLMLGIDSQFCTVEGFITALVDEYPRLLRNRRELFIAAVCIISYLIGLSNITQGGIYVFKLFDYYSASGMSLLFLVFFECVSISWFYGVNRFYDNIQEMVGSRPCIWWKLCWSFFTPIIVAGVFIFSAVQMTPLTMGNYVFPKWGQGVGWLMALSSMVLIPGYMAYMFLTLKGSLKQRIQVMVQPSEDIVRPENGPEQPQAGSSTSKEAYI
# Description: Synaptosomal membranes were prepared using the whole brain without cerebellum, brainstem, or olfactory bulb from Sprague Dawley rats (male, 7 weeks old) or human cerebral cortex based on Fuks et al.[10] and Hanada et al.[11] Synaptosomal membranes (0.4 mg protein/tube) were incubated with 9.8–5000 nM [^3H]E2730 for 120 minutes at 4°C. Non‐specific binding was defined as the residual binding observed in the presence of 1 mM unlabeled E2730. […] The filters were washed three times with ice‐cold 50 mM Tris–HCl buffer (pH 7.4) and incubated overnight in a scintillator (PerkinElmer), then the radioactivity was measured by a liquid scintillation counter (PerkinElmer).
# hGAT1 = target: T3, hGAT1 (Homo sapiens, UniProt P30531); assay: [3H]GABA uptake in hGAT1 cells under different GABA concentrations; type: cell-based; conditions: [3H]GABA 0.01-500 μM
# T3 construct: expressed in transfected cells; host or cells: HEK293
# T3 sequence (P30531 whole entry): as above
# Description: hGAT1 stably expressing HEK293 cells were plated onto 96‐well microtiter plates at a density of 4.0 × 10^4 cells/well in DMEM and incubated overnight at 37°C in a 5% CO2 atmosphere. After washing the cells with assay buffer, E2730 (0.0128–1000 μM), tiagabine (Tokyo Chemical Industry; 0.000256–100 μM), or vehicle was added to the plate in the presence of 1% DMSO. After adding [^3H]GABA (0.01–500 μM), the plate was incubated for 5 minutes at 37°C in a 5% CO2 atmosphere. The radioactivity of the treated cells was assessed following the same method described above.
# corneal kindling mice = assay: Corneal kindling in mice; type: in vivo; conditions: Mus musculus; oral, 1 hour before electrical stimulation; read-out: ED50 (95% CI) in corneal kindling mice
# Description: A corneal kindling mouse model was developed following the method described by Potschka and Löscher.[7] Male C57BL/6N mice (5 weeks old; Charles River Laboratories Japan, Japan) were stimulated using corneal electrodes (4 mA, 50 Hz, 3‐second duration each) twice daily for 10 consecutive days, and stimulated mice were observed and rated based on the Racine's scale (0, no seizure; 1, mild facial clonus and eye blinking; 2, severe facial clonus, head nodding, or chewing; 3, unilateral or alternating forelimb clonus; 4, bilateral forelimb clonus and rearing; 5, bilateral forelimb clonus with rearing and falling). Mice with scores ≥3 were deemed epileptic, whereas mice with scores <3 were deemed non‐epileptic. Mice rated 4 or 5 (i.e. fully kindled mice) were used for drug evaluation.
# [4] = system: extracellular GABA concentration in mouse hippocampus; assay: Microdialysis: extracellular GABA concentration in mouse hippocampus; type: in vivo
# Description: A guide cannula was implanted in the left hippocampus (2.7 mm posterior, 3.3 mm left, and 1.8 mm below from the bregma) of ddY mice (male, 5 weeks old). After 5–7 days of recovery, a microdialysis probe (Eicom) was inserted into the left hippocampus through the guide cannula. The tip of the microdialysis probe reached 4.8 mm below the bregma. The next day, the probe was connected to a perfusion tube and perfused with Ringer solution (containing 147.0 mM NaCl, 4.7 mM KCl, 0.6 mM MgSO4, 2.5 mM CaCl2, 5.0 mM HEPES, pH 7.4) at a flow rate of 1.5 μL/min. After ≥160 minutes of perfusion, collection of the perfusate (30 μL/20 min/fraction) was initiated, and 12 fractions per animal were collected for 240 minutes. E2730 (10–100 mg/kg), tiagabine (3–30 mg/kg), or vehicle was orally administered 72 minutes after initiating sample collection. Tiagabine was used as a reference ASM of a non‐competitive GAT1 inhibitor. Perfusate was switched from Ringer solution to high‐potassium Ringer solution (51.7 mM NaCl, 100.0 mM KCl, 0.6 mM MgSO4, 2.5 mM CaCl2, 5.0 mM HEPES, pH 7.4) after 127 minutes following the collection. GABA concentration in each sample was measured by a high‐performance liquid chromatography with tandem mass spectrometry method.
# [5] = target: T4, rat brain synaptosomal membranes (Rattus norvegicus, UniProt P23978); assay: Competitive displacement of [3H]E2730 binding with ASMs; conditions: 20 nM [3H]E2730; unlabeled E2730 0.1-10 μM; ASMs at 10-3000 μM
# T4 construct: Synaptosomal membranes were prepared using the whole brain without cerebellum, brainstem, or olfactory bulb; from tissue; host or cells: rat whole brain without cerebellum, brainstem or olfactory bulb; synaptosomal membranes
# Description: Unlabeled E2730 (0.1–10 μM) was also assessed to confirm a representative displacement. Non‐specific binding was defined as the residual binding observed in the presence of 1 mM unlabeled E2730. Radioactivity of the synaptosome‐bound radioligand was measured in the same way as described above.
# hNav1.2 = target: T5, hNav1.2 (Homo sapiens, UniProt Q99250); assay: Veratridine-induced hNav1.2 activation in CHO cells, membrane potential assay; type: cell-based; conditions: up to 100 μM, veratridine 50 μM
# T5 construct: expressed in transfected cells; host or cells: CHO
# T5 sequence (Q99250 whole entry): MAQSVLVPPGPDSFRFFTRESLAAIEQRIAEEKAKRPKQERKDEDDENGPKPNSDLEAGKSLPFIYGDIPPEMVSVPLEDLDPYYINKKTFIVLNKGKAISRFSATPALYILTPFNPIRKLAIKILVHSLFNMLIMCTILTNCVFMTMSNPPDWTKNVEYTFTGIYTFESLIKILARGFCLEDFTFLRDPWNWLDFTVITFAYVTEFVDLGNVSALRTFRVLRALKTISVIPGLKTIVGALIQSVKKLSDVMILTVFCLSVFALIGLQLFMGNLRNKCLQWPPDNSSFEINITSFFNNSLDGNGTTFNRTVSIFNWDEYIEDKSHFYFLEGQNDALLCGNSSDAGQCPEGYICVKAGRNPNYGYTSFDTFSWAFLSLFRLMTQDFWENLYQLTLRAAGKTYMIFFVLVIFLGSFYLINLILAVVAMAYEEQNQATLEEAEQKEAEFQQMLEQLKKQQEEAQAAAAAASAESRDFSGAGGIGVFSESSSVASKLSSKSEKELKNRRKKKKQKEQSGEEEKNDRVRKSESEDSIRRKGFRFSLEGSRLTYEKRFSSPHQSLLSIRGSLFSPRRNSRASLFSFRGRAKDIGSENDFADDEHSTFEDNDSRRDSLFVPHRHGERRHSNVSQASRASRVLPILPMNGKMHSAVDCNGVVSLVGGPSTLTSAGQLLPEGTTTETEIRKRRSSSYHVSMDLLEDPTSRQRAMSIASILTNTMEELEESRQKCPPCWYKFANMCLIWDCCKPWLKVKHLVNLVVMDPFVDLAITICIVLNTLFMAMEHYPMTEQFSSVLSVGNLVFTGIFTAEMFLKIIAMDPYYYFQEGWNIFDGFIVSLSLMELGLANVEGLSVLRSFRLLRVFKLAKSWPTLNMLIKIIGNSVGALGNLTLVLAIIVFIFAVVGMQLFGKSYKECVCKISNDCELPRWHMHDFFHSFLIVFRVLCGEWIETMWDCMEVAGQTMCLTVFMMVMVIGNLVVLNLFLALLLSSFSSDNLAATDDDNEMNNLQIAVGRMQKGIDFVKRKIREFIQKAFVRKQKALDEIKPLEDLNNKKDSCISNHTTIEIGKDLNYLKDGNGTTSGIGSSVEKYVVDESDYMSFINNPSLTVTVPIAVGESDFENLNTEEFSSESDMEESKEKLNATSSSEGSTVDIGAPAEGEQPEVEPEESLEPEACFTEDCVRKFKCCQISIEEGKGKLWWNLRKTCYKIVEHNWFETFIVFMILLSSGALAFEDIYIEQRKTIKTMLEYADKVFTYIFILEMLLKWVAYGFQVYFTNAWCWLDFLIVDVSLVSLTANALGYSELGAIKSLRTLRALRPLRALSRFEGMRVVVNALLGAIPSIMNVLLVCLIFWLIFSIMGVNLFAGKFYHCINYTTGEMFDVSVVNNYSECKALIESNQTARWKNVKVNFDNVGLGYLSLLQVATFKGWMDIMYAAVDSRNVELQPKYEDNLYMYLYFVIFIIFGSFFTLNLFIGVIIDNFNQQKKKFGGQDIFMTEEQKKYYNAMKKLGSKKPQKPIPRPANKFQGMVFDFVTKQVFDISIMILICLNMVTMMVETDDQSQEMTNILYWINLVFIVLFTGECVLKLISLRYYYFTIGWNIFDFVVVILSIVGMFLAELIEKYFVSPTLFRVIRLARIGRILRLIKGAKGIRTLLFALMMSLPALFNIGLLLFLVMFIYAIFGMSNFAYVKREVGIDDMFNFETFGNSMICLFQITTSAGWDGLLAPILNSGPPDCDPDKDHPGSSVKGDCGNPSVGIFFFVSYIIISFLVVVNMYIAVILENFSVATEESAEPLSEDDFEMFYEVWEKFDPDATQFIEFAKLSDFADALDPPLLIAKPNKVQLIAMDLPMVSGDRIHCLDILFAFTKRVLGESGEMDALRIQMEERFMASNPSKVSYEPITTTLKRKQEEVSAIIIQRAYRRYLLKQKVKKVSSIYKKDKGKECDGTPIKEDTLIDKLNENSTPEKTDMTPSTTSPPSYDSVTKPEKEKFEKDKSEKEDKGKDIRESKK
# Description: Data represent the mean ± SEM of three independent experiments. Effects of E2730 and desipramine (Sigma-Aldrich, MO) on hNav1.2 activity were evaluated in CHO cells stably expressing hNav1.2 using a fluorescent-based membrane potential assay (Molecular Devices, CA). Activation of hNav1.2 was induced by veratridine (50 μM) and the change of fluorescence (excitation wavelength, 480 nm; emission wavelength, 540 nm) was recorded using Fluorescence Drug Screening System 6000 (Hamamatsu Photonics, Japan).
# [6] = mouse hippocampus, oral, E2730 10-100 mg/kg, tiagabine 3-30 mg/kg
structure (smiles),measurement,setting,value
NS(=O)(=O)N[C@H]1c2c(F)cc(F)cc2CC1(F)F [E2730],binding in panel assay,[1],no significant binding
same,effect on GABA-induced current,[2],did not directly affect
same,Bmax,[3],2503 fmol/mg protein
same,Kd,[3],710 nM
same,dependence of GAT1 inhibition on ambient GABA concentration,hGAT1,positively correlated with the ambient GABA concentration
same,ED50,corneal kindling mice,7.9 mg/kg
same,effect on high-potassium-induced extracellular GABA concentration,[4]; E2730 10 mg/kg,not statistically significant
same,effect on high-potassium-induced extracellular GABA concentration,[4]; E2730 30 and 100 mg/kg,significantly increased
same,effect on basal extracellular GABA concentration,[4]; [6],no significant difference; also recorded: did not increase; also recorded: did not affect
same,effect on high-potassium-induced extracellular GABA concentration,[4]; [6],significant increase
same,displacement of [3H]E2730 binding,[5],displaced the radiolabeled [^3H]E2730 in a concentration‐dependent manner
same,effect on hNav1.2 activation,hNav1.2,did not inhibit; also recorded: did not directly affect
